Data reported in PMC10931745 (International Journal of Molecular Sciences, 2024).

Experiments:
MCF-7 = assay: MTT cell viability assay; format: cell-based, human
Experimental: (§1) The cell lines used were purchased from American Type Culture Collection (ATCC, Manassas, VA, USA). Human breast cancer cells MCF-7 and MDA-MB-231, human mammary epithelial cell line MCF-10A, and mouse BALB/3T3 embryonic fibroblasts were cultured as already described by some of us. The murine macrophage cell line RAW 264.7 was maintained in Dulbecco’s Modified Eagle’s Medium (DMEM) high glucose (4.5 g/L) supplemented with 10% Fetal Bovine Serum (FBS), 1% L-glutamine, and 100 units/mL of penicillin/streptomycin. The cell cultures were maintained at the temperature of 37 °C in a humidified atmosphere containing 5% CO2.
(§2) The 3-(4,5-dimethylthiazol-2-yl)-2,5-diphenyl-2H-tetrazolium bromide (MTT) assay (Sigma Aldrich (St. Louis, MO, USA)) was carried out to study the in vitro anticancer activities of the complexes, following the previously reported protocol. The cells were incubated for 72 h with different concentrations of the tested compounds (0.1, 1, 10, 25, 50, 100, and 500 µM) and the IC50 values were calculated from the percent (%) of control using the software GraphPad Prism 9 (GraphPad Software, La Jolla, CA, USA).

MDA-MB-231 = assay: MTT cell viability assay; format: cell-based, human
Experimental: as §1, §2

[1] = tested on: human mammary epithelial cell line MCF-10A; assay: MTT assay, toxicity towards normal cells; format: cell-based; details: 72 h
Experimental: as §1, §2

[2] = target: T1, human topoisomerase I (hTopoI) (Homo sapiens, UniProt P11387); assay: Human topoisomerase I relaxation assay; format: biochemical; details: supercoiled pHOT1 DNA
T1 construct: purchased TopoGEN, Port Orange, FL, USA
T1 sequence (P11387 1-765): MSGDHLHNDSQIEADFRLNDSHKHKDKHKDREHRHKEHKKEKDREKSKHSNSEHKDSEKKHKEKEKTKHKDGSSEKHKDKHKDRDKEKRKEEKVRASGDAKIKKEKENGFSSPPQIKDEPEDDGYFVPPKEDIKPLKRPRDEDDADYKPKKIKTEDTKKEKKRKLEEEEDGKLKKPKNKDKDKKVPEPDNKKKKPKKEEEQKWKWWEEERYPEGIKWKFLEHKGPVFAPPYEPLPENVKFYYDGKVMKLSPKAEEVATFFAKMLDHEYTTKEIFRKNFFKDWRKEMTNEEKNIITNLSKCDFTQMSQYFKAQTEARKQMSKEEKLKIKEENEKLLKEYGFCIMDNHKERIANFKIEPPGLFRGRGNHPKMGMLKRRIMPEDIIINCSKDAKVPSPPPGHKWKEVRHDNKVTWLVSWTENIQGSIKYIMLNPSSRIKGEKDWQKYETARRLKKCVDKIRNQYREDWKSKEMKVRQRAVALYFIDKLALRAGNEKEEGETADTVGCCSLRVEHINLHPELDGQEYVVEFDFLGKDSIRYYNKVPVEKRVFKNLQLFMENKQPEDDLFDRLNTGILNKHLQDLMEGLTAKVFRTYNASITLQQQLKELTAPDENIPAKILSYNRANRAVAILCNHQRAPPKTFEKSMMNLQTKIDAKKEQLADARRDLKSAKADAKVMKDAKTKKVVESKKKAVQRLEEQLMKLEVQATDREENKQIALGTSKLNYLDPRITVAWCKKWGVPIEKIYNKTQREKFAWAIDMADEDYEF
Experimental: The human topoisomerase I relaxation assay was performed as reported in [86]. Shortly, the recombinant human topo I (TopoGEN, Port Orange, FL, USA) was incubated with the super-coiled pHOT1, in the presence or not of the tested compounds, at the indicated concentrations. The reaction products were then allowed to separate through the agarose gel electrophoresis, and ethidium bromide-stained DNA was visualized under UV light.

[3] = ABTS radical scavenging assay; format: biochemical
Experimental: The radical scavenging properties of the complexes on a 2,20-azino-bis(3-ethylbenzothiazoline-6-sulfonate) radical cation (ABTS^+) were evaluated as previously described.
All the complexes were used at different concentrations (5, 10, 25, 50, and 100 µg/mL) and the ABTS radical scavenging activity, measured at 730 nm using a microplate reader, was expressed as inhibition percentages (%IABTS) compared tothe control, according to the following expression:(3) IABTS (%)=ABSCTRL−ABSsample/ABSCTRL∗100 where ABSCTRL and ABSsample are the absorbance at 730 nm in the control and in the presence of samples, respectively.
IC50 values were calculated from the %IABTS using GraphPad Prism 9 software (GraphPad Inc., San Diego, CA, USA). Trolox was employed as a positive control, while caffeine and theophylline were reference compounds.

[4] = DPPH radical scavenging assay; format: biochemical
Experimental: The radical scavenging properties of the complexes on the 1,1-diphenyl-2-picrylhydrazil (DPPH) radical were evaluated as previously described.
All the complexes were used at different concentrations (10, 25, 50, 100, and 200 µg/mL) and the DPPH radical scavenging activity, measured at 517 nm using a microplate reader, was expressed as inhibition percentages (%IDPPH) compared to the initial concentration of DPPH (control) according to the following expression:(2) IDPPH (%)=ABSCTRL−ABSsample/ABSCTRL∗100 where ABSCTRL and ABSsample are the absorbance at 517 nm in the control and in the presence of samples, respectively.
The obtained IDPPH percentages allowed us to calculate the IC50 values using Graph-Pad Prism 9 software (GraphPad Inc., San Diego, CA, USA). Trolox was employed as a positive control, while caffeine and theophylline were reference compounds.

[5] = tested on: Escherichia coli (ATCC 25922); assay: MIC/MBC broth dilution; format: cell-based; details: for MIC: Escherichia coli, ATCC25922
Experimental: (§3) The bacterial strains used for MIC and MBC value determinations expressed as µg/mL by the broth dilution method, according to CLSI guidelines, were the following:
(§4) -4 Gram-negative: Escherichia coli (ATCC® 25922^TM) and Klebsiella pneumoniae (ATCC® 13883^TM);
(§5) Increasing concentrations of the complexes (50, 70, 100, 150, and 200 µg/mL) were incubated with bacteria plated in 96-well microplates at 37 °C overnight as already reported, and then bacterial growth was checked at a wavelength of 600 nm using a Multiskan spectrophotometer (model Multiskan Ex Microplate; Thermo Scientific, Nyon, Switzerland). MIC or MBC values were obtained by comparing cell density with a positive control (bacterial cells grown in LB medium were added with only the vehicle, DMSO). The results were representative of three independent experiments performed in triplicate. Ampicillin, Gentamicin, and Cephalosporin (Sigma Aldrich A9393) were used as the control for strain sensitivity.

[6] = tested on: Klebsiella pneumoniae (ATCC 13883); assay: MIC/MBC broth dilution; format: cell-based; details: for MIC: Klebsiella pneumoniae, ATCC13883, read-out: M.I.C. K. pneumoniae
Experimental: as §3, §4, §5

[7] = tested on: Enterococcus faecalis (ATCC 19433); assay: MIC/MBC broth dilution; format: cell-based; details: for MIC: Enterococcus faecalis, ATCC19433, read-out: M.I.C. E. faecalis
Experimental: as §3
(§6) -3 Gram-positive: Enterococcus faecalis (ATCC® 19433^TM), Staphylococcus aureus (ATCC® 23235^TM), and Staphylococcus epidermidis (ATCC® 14990™).
as §5

[8] = tested on: Staphylococcus aureus (ATCC 23235); assay: MIC/MBC broth dilution; format: cell-based; details: for MIC: Staphylococcus aureus, ATCC23235, read-out: M.I.C. S. aureus
Experimental: as §3, §6, §5

[9] = tested on: Staphylococcus epidermidis (ATCC 14990); assay: MIC/MBC broth dilution; format: cell-based; details: for MIC: Staphylococcus epidermidis, ATCC14990, read-out: M.I.C. S. epidermidis
Experimental: as §3, §6, §5

[10] = tested on: Pseudomonas aeruginosa (ATCC 15442); assay: MIC/MBC broth dilution; format: cell-based
Experimental: as §3
as §5, with “The results were representative of three independent experiments performed in triplicate.” left out

[11] = tested on: NO production in LPS-stimulated RAW 264.7 macrophages; assay: Griess assay, NO production; format: cell-based, murine; details: 25 µM, LPS 1 µg/mL, 24 h
Experimental: The Griess assay was performed using RAW 264.7 murine macrophages to study the anti-inflammatory activity in terms of NO production. RAW 264.7 cells were plated in the 48 multi-wells and, after 24 h, treated with the tested molecules (25 µM) and the lipopolysaccharide (LPS, Sigma Aldrich, Milan, Italy) at a final concentration of 1 µg/mL. LPS is able to induce inflammation by stimulating NO production in immune system cells such as macrophages. After 24 h, the cell medium Griess reagent (Sigma Aldrich, Milan, Italy) was mixed in with a ratio of 1:1. The Griess reagent allowed for the quantification of NO released by macrophages in the treatment medium. The mixture was left for 30 min under agitation and, subsequently, the absorbance at 540 nm was measured using a multiplate reader. The obtained absorbance allowed us to calculate the NO production % compared to the absorbance obtained for the positive control, in which the cells were treated with LPS.

[12] = tested on: Salmonella typhimurium (ATCC 14028); assay: MIC/MBC broth dilution; format: cell-based
Experimental: as §3
as §5, with “The results were representative of three independent experiments performed in triplicate.” left out

| Structure (SMILES) | IC50 (MCF-7; Homo sapiens, MCF7, 72 h) [µM] | IC50 (MDA-MB-231; Homo sapiens, MDA-MB-231, 72 h) [µM] | IC50 [3] [µM] | IC50 [4] [µM] | IC50 ([1]; Homo sapiens, MCF-10A) [µM] | M.I.C. E. coli [5] [µg/mL] | M.I.C. K. pneumoniae [6] [µg/mL] | M.I.C. E. faecalis [7] [µg/mL] | M.I.C. S. aureus [8] [µg/mL] | M.I.C. S. epidermidis [9] [µg/mL] | also measured |
| --- | --- | --- | --- | --- | --- | --- | --- | --- | --- | --- | --- |
| Cn1c(=O)c2c(ncn2C)n(C)c1=O [Caffeine, 1,3,7-trimethylxanthine, reference compound] | > 500 | > 500 | > 500 | > 500 | > 500 | >200 | >200 | >200 | >200 | >200 | Inhibition of hTopo I supercoil relaxing activity ([2]; 1 µM): failed; IC50 ABTS scavenging [3]: did not show any scavenging capacity; IC50 DPPH scavenging [4]: did not show any scavenging capacity; MIC [5]: > 200 µg/mL; MIC [6]: > 200 µg/mL; MIC [7]: > 200 µg/mL; MIC [8]: > 200 µg/mL; MIC [9]: > 200 µg/mL; M.I.C. P. aeruginosa [10]: >200 µg/mL; MIC ([10]; Pseudomonas aeruginosa, ATCC15442, read-out: M.I.C. P. aeruginosa): > 200 µg/mL |
| N.N.[Cl][Pt][Cl] [Cisplatin, reference compound] |  |  |  |  |  |  |  |  |  |  | IC50 (MCF-7; 72 h): 26.2 ± 1.1 µM; IC50 (MDA-MB-231; 72 h): 32.2 ± 1 µM; IC50 [1]: 78.2 ± 1.2 µM; Inhibition of hTopo I supercoil relaxing activity ([2]; 50 µM): inhibited the hTopoI activity |
| Cn1c(=O)c2c(n(C)c1=O)[n+](C)cn2CC(O)c1ccccc1 (stereo not drawn) [P-L1, 9-[(2-Hydroxy-2-phenyl)ethyl]-1,3,7-trimethylxanthinium Iodide] | > 100 | > 100 |  |  | > 100 |  |  |  |  |  |  |
| Cc1c(C)c2c(c(C)c1O)CCC(C)(C(=O)O)O2 (stereo not drawn) [Trolox, reference compound] |  |  | 54.5 ± 0.9 | 47 ± 1.2 |  |  |  |  |  |  |  |

Now from value to compound, other results behind:

| IC50 (MCF-7; Homo sapiens, MCF7, 72 h) [µM] | IC50 (MDA-MB-231; Homo sapiens, MDA-MB-231, 72 h) [µM] | IC50 [3] [µM] | IC50 [4] [µM] | Structure (SMILES) | IC50 ([1]; Homo sapiens, MCF-10A) [µM] | M.I.C. E. coli [5] [µg/mL] | M.I.C. K. pneumoniae [6] [µg/mL] | M.I.C. E. faecalis [7] [µg/mL] | M.I.C. S. aureus [8] [µg/mL] | M.I.C. S. epidermidis [9] [µg/mL] | also measured |
| --- | --- | --- | --- | --- | --- | --- | --- | --- | --- | --- | --- |
| > 500 | > 500 | > 500 | > 500 | Cn1c(=O)c2[nH]cnc2n(C)c1=O [Theophylline, reference compound] | > 500 | >200 | >200 | >200 | >200 | >200 | IC50 ABTS scavenging [3]: did not show any scavenging capacity; IC50 DPPH scavenging [4]: did not show any scavenging capacity; MIC [5]: > 200 µg/mL; MIC [6]: > 200 µg/mL; MIC [7]: > 200 µg/mL; MIC [8]: > 200 µg/mL; MIC [9]: > 200 µg/mL |
|  |  | 155.5 ± 1 | > 500 | Cn1c(=O)c2c(n(C)[c]([Au-][I])[n+]2C2CCCCC2O)n(C)c1=O (stereo not drawn) [AuL2, 1,3,7-Trimethylxanthin-9-[cyclohexan-2-ol-8-ylidene]Au(I) Iodide] |  | 150 | 150 | 150 | 150 | 100 | IC50 (MCF-7; 72 h): > 100 µM; IC50 (MDA-MB-231; 72 h): > 100 µM; IC50 [1]: > 100 µM; Reduction in NO production [11]: ~12.64%; M.B.C. E. coli [5]: > 200 µg/mL; M.B.C. K. pneumoniae [6]: > 200 µg/mL; M.B.C. E. faecalis [7]: > 200 µg/mL; M.B.C. S. aureus [8]: > 200 µg/mL; M.B.C. S. epidermidis [9]: > 125 µg/mL; M.B.C. P. aeruginosa [10]: > 125 µg/mL; M.I.C. P. aeruginosa [10]: 100 µg/mL; M.B.C. S. typhimurium [12]: > 200 µg/mL; M.I.C. S. typhimurium [12]: 150 µg/mL |
| > 100 | > 100 |  |  | Cn1c(=O)c2c(n(C)c1=O)[n+](C)cn2CCO [P-L3] | > 100 |  |  |  |  |  |  |
| > 100 | > 100 |  |  | Cn1c(=O)c2c(n(C)c1=O)[n+](C)cn2C1CCCCC1O (stereo not drawn) [P-L2, 9-[Cyclohexan-2-ol]-1,3,7-trimethylxantinium Iodide] | > 100 |  |  |  |  |  |  |
